“And” between values parts separate entries of the source, which are not always exact repeats. Identical values can stand only once. The source made the active and inactive calls.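 The calls were made as follows: active = compounds giving half or more protection of infected cells from virus-caused growth loss, again on retest; inactive = the rest.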
Tested on: CEM cells HIV-1 protection, formazan growth assay
Assay: NCI AIDS Antiviral Assay
Settings: for IC50: measured here: growth of uninfected CEM cells
Outline: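 Soluble formazan readout of cell growth; CEM cells ± HIV-1; 5 drug concs. ≥50% protection → retest; ≥50% again = moderately active; reproducible 100% = confirmed active.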

Compound: COC(=O)[C@@H](NC(=O)N(CCC#N)CCCN(C(=O)N[C@H](Cc1ccccc1)C(=O)OC)c1ccccc1)C(C)C
- EC50: > 200 µM
- IC50: 87.1 µM

Compound: COc1cc2c3cc1Oc1c(OC)c(OC)cc4c1C(Cc1ccc(O)c(c1)Oc1ccc(cc1)CC3N(C)CC2)N(C)CC4 (configuration not stated)
- outcome: inactive

Compound: COC(=O)C1=C(C(=O)OC)SC(=C2c3ccsc3-c3sccc32)S1
- EC50: > 200 µM
- IC50: > 200 µM

Compound: c1ccc(Nc2nnc(CCCCCCCCc3nnc(Nc4ccccc4)o3)o2)cc1
- EC50: > 200 µM
- IC50: 107 µM

Compound: Cc1cc(Oc2cnc(=O)[nH]c2)cs1
- EC50: > 200 µM
- IC50: > 200 µM

Compound: O=[N+]([O-])c1cccc(S(=O)(=O)N2CCCC2)c1
- EC50: > 200 µM
- IC50: 166 µM

Compound: COC(=O)C(/C(=N/N)C(=O)Nc1cc(Cl)ccc1Cl)c1nc2ccc([N+](=O)[O-])cc2[nH]c1=O (configuration not stated)
- EC50: > 138 µM
- IC50: > 138 µM

Compound: OCC(CO)C1c2cccc3ccc4cccc1c4c23
- outcome: inactive

Compound: Cc1cc(Cc2cc(C)c(NC(=O)C(=O)C3C(=O)NC(=S)NC3=O)c(C(C)C)c2)cc(C(C)C)c1NC(=O)C(=O)C1C(=O)NC(=S)NC1=O
- outcome: inactive

Compound: Clc1nc(Cl)nc(Nc2ncccn2)n1
- EC50: > 200 µM
- IC50: > 200 µM

Compound: CCNCCNCC.[O-][Cl+3]([O-])([O-])[O-].[Pd+2].c1ccc(-c2ccccn2)nc1
- EC50: > 200 µM
- IC50: 30.9 µM

Compound: CCOc1cc2c(cc1C(C)c1ccc(OC)cc1)OCO2 (configuration not stated)
- EC50: > 33.1 µM
- IC50: 0.214 µM

Compound: CC(=O)C1CC=C(C)CC1 (configuration not stated)
- EC50: > 1820 µM
- IC50: 141 µM

Compound: CCOC(=O)[C@@H]1OC(c2ccccc2)O[C@H]1C(=O)OCC
- EC50: > 200 µM
- IC50: > 200 µM

Compound: C=C1CC(Cn2ccc(=O)[nH]c2=O)(c2ccc(-c3ccccc3)cc2)OC1=O (configuration not stated)
- EC50: > 20 µM
- IC50: 0.479 µM

Compound: COc1cnc(NS(=O)(=O)c2ccc(N)cc2)nc1
- EC50: > 200 µM
- IC50: > 200 µM

Compound: CCCCCCCCNC(=S)/N=C/c1c(O)c2ccccc2oc1=O
- EC50: > 200 µM
- IC50: 38.9 µM

Compound: COc1ccccc1N1C(=O)C2c3[nH]c4ccccc4c3C3CCC(C(C)(C)C)CC3C2C1=O (configuration not stated)
- EC50: > 1.2 µM
- IC50: > 1.2 µM

Compound: CCOC(=O)CC1CCN(C(=O)c2ccccc2)C2Cc3c([nH]c4ccccc34)C12C[N+](=O)[O-] (configuration not stated)
- EC50: > 200 µM
- IC50: 85.1 µM

Compound: CCCCOC(=O)c1ccc(N)cc1
- EC50: > 200 µM

Compound: O=[N+]([O-])C=C1c2ccccc2-c2ccccc21
- outcome: inactive

Compound: COc1ccc2[nH]c(=O)cc(C)c2c1[N+](=O)[O-]
- outcome: inactive

Compound: CNc1ncn(-c2c(C)cccc2C)c(=O)n1
- EC50: > 200 µM
- IC50: > 200 µM

Compound: Sc1ccc2ccccc2c1CNC1CCCCC1
- EC50: > 200 µM
- IC50: 28.2 µM

Compound: Nc1nc(Cl)cc2nsnc12
- EC50: > 28.2 µM
- IC50: > 28.2 µM

Compound: O/C(=C\c1nc2ccccc2nc1/C=C(\O)c1ccc(Cl)cc1)c1ccccc1
- EC50: > 200 µM
- IC50: 6.46 µM

Compound: CC(C)(C)C1CCC2c3c([nH]c4ccccc34)C3C(=O)N(c4ccccc4Cl)C(=O)C3C2C1 (configuration not stated)
- EC50: > 200 µM
- IC50: 16.6 µM

Compound: C1=CC=C(N=P(c2ccccc2)(c2ccccc2)c2ccccc2)CC=C1
- outcome: inactive

Compound: CC(=O)NN1CCN(C)CC1
- EC50: > 200 µM
- IC50: > 200 µM

Compound: COC(=O)C(=O)C(C(=O)C(=O)Nc1ccc(Cl)c(Cl)c1)c1nc2ccc(C(=O)c3ccccc3)cc2[nH]c1=O (configuration not stated)
- EC50: > 33.1 µM
- IC50: > 33.1 µM

Compound: O=S(=O)(O)c1cc(N=Nc2ccc(O)c3ncccc23)ccc1CCc1ccc(N=Nc2ccc(O)c3ncccc23)cc1S(=O)(=O)O
- EC50: 6.31 µM
- IC50: 42.7 µM

Compound: N#C/C(=C\c1ccc2[nH]ccc2c1)C(=O)c1ccc(O)c(O)c1
- EC50: > 589 µM
- IC50: 102 µM

Compound: CC(=O)CC1(O)C(=O)Nc2ccccc21 (configuration not stated)
- EC50: > 200 µM
- IC50: > 200 µM

Compound: O=C(CC(=O)N1N=C(c2ccccc2)C(N=Nc2ccc(Cl)cc2)C1=O)Nc1ccccc1Cl (configuration not stated)
- EC50: > 38 µM
- IC50: > 38 µM

Compound: Clc1cc(Cl)cc(Nc2nc3ccccc3nc2-c2cccs2)c1
- EC50: > 10 µM
- IC50: > 10 µM

Compound: COC(=O)c1ccc(/C=C/c2cc(O)ccc2O)cc1
- EC50: > 20 µM
- IC50: 3.09 µM

Compound: CCCC1(CCC)c2cc(/C=N\O)ccc2-c2ccc(-c3ccc(C(C)(C)C)cc3)cc21
- EC50: > 200 µM
- IC50: 37.2 µM

Compound: O=c1[nH]c(Nc2ccccc2)nc2c1ncn2CC(O)CSCCO (configuration not stated)
- EC50: > 200 µM
- IC50: > 200 µM

Compound: C[C@]12OC[C@H](c3ccccc3)N1C(=O)C1[C@H]2CC12SCCS2 (some centres not stated)
- EC50: > 200 µM
- IC50: 178 µM

Compound: CCCCCCCCCCCCCOC(=O)CC(C(=O)OCCCCCCCCCCCCC)S(=O)(=O)O (configuration not stated)
- EC50: > 200 µM
- IC50: 102 µM

Compound: Cc1cccc(N2C(=O)C3c4[nH]c5ccccc5c4C4CCC(C(C)(C)C)CC4C3C2=O)c1 (configuration not stated)
- EC50: > 200 µM
- IC50: 38.9 µM

Compound: CC1=CC(C)(C)SC(SSSC2=NC(C)=CC(C)(C)S2)=N1
- EC50: > 200 µM
- IC50: 38.9 µM

Compound: CN1C(=O)C(c2c[nH]c3ccccc23)N(C)C(=O)C1c1c[nH]c2ccccc12 (configuration not stated)
- EC50: > 200 µM
- IC50: > 200 µM

Compound: C[P@](=O)(CCSc1ccccc1)c1ccccc1
- EC50: > 468 µM
- IC50: > 468 µM

Compound: NC(=O)c1coc(C2OC(CO)C(O)C2O)n1 (configuration not stated)
- EC50: > 1020 µM
- IC50: > 1020 µM

Compound: O=C1C=C(Br)c2c(-c3ccccc3)oc3cccc1c23
- outcome: inactive

Compound: O=c1c(O)c(-c2ccc(O)c(O)c2)oc2cc(O)ccc12
- EC50: > 550 µM
- IC50: 55 µM and 25.7 µM

Compound: CCN(CC)c1ccc(NC(=S)NN)cc1
- EC50: > 200 µM
- IC50: 11.2 µM

Compound: O=C1NC(=O)/C(=C/c2ccc(S(=O)(=O)N/N=C/c3ccc(Cl)cc3)cc2)N1
- EC50: > 200 µM
- IC50: 123 µM

Compound: CC1(C)c2ccccc2C(C)(C)C(C(=O)Nc2ccccc2)C1C(=O)O (configuration not stated)
- outcome: inactive

Compound: O=C(O)C1=CC(=C(c2ccc(O)c(C(=O)O)c2)c2ccc(O)c(C(=O)O)c2)C=CC1=O
- EC50: > 1660 µM
- IC50: > 1660 µM

Compound: O=C(n1c(=O)n(-c2ccc(Cl)cc2)c(=O)n1C(=O)C(Cl)(Cl)Cl)C(Cl)(Cl)Cl
- EC50: > 200 µM
- IC50: > 200 µM

Compound: Cc1[nH]c2ccccc2c1C1CC(=O)NC1=O (configuration not stated)
- outcome: inactive

Compound: CC(=O)O[C@H]1CC[C@@]2(C)C(=CC[C@@H]3C2CC[C@]2(C)Nc4oncc4CC32)C1 (some centres not stated)
- outcome: inactive

Compound: COC(=O)c1ccccc1C#CC#Cc1ccccc1C(=O)OC
- EC50: > 200 µM
- IC50: 24 µM

Compound: CC1=CC(C/C(C)=C/COc2ccc3ccc(=O)oc3c2)OC1=O (configuration not stated)
- EC50: > 3.24 µM
- IC50: > 3.24 µM

Compound: CC(=O)n1c(=O)c2cc3c(=O)n(-c4cccc(C#N)c4)c(=O)c3cc2c1=O
- outcome: inactive

Compound: CC1=NS(=O)(=O)c2ccccc2N1
- EC50: > 1260 µM
- IC50: > 1260 µM

Compound: Clc1ccc(OCC(COc2ccccc2)Oc2nc(-c3ccccc3)nc(-c3ccccc3)n2)cc1 (configuration not stated)
- EC50: > 3.89 µM
- IC50: > 3.89 µM

Compound: COc1cc([N+](=O)[O-])ccc1NC(=O)Nc1cc(C)ccn1
- EC50: > 200 µM
- IC50: > 200 µM

Compound: COc1cc(C(=O)O)c(C(=O)c2ccc(C#N)cc2)cc1OC
- EC50: > 200 µM
- IC50: > 200 µM

Compound: CN(C)CCCNC(=O)CNC(=O)c1cc(NC(=O)c2cc(NC(=O)c3cc(NC(=O)CCNC(=O)c4cc(NC(=O)c5cc(NC(=O)c6nccn6C)cn5C)cn4C)cn3C)cn2C)cn1C
- outcome: inactive

Compound: CC1(C)C[N+](C)(C)C2(CCCC2)O1
- EC50: > 200 µM
- IC50: > 200 µM

Compound: Cn1nc(-c2ccccc2)c(C(=O)/C=C/c2ccc(F)cc2)c(N2CCCC2)c1=O
- EC50: 26.3 µM
- IC50: 36.3 µM

Compound: O=C1C(c2ccc([N+](=O)[O-])cc2)=C(Cl)C(=O)c2c(O)cccc21
- EC50: > 398 µM
- IC50: 8.71 µM

Compound: O=C1c2ccccc2C(=O)c2c(SSc3cccc4c3C(=O)c3ccccc3C4=O)cccc21
- EC50: > 200 µM
- IC50: > 200 µM

Compound: Cc1cc(C)nc(NS(=O)(=O)c2ccc(N)cc2)n1
- EC50: > 200 µM
- IC50: > 200 µM

Compound: CC(=O)NC(CS/N=N/c1nc[nH]c1C(N)=O)C(=O)O (configuration not stated)
- EC50: > 200 µM
- IC50: 0.38 µM

Compound: OC1C2CCC1C1C3C=CC(C3)C21 (configuration not stated)
- outcome: inactive

Compound: CN(C)c1ccc(Cc2cc3c(O)ccc(O)c3cc(Cc3ccc(N(C)C)cc3)c2=O)cc1
- EC50: > 200 µM
- IC50: 3.16 µM

Compound: O=C(O)CN(c1ccccc1Cl)S(=O)(=O)c1ccccc1
- outcome: inactive

Compound: Cc1ncc([N+](=O)[O-])n1CC(O)Cn1ccnc1[N+](=O)[O-] (configuration not stated)
- EC50: > 200 µM
- IC50: > 200 µM

Compound: CCOC(=O)C(=Cc1ccc(Oc2ccccc2)cc1)C(=O)OCC
- EC50: > 11.2 µM
- IC50: > 11.2 µM

Compound: N#Cc1cc2c(cc1C#N)/C(=N\c1cccc(N)n1)N=C2Nc1cccc(N)n1
- EC50: > 200 µM
- IC50: 4.07 µM

Compound: O=C1c2ccccc2N2OC3C4CCC(C4)C3C12c1ccccc1 (configuration not stated)
- EC50: > 16.2 µM
- IC50: 11.5 µM

Compound: CN1Cc2c(ccc3c2OCO3)C2C(O)Cc3cc4c(cc3C21)OCO4 (configuration not stated)
- EC50: > 0.912 µM
- IC50: 0.234 µM

Compound: Clc1c(Cl)c2c(Cl)c(Cl)c1C[P+](c1ccccc1)(c1ccccc1)CC[P+](c1ccccc1)(c1ccccc1)Cc1c(Cl)c(Cl)c(c(Cl)c1Cl)C[P+](c1ccccc1)(c1ccccc1)CC[P+](c1ccccc1)(c1ccccc1)C2
- EC50: > 66.1 µM
- IC50: 4.68 µM

Compound: COc1cc(/C=C2\C(=O)N(c3cccc([N+](=O)[O-])c3)C(c3ccccc3)S2(=O)=O)cc(OC)c1OC (configuration not stated)
- outcome: inactive

Compound: [N-]=[N+]=NCN1C(=O)C2C3C=CC(C2C1=O)C1C2C(=O)N(CN=[N+]=[N-])C(=O)C2C31 (configuration not stated)
- outcome: inactive

Compound: CCOC(=O)C(C)[P+](c1ccccc1)(c1ccccc1)c1ccccc1 (configuration not stated)
- EC50: > 200 µM
- IC50: 3.09 µM

Compound: CCc1ccc(/C(C#N)=C/c2cccc3ccccc23)cc1
- EC50: > 200 µM
- IC50: 26.9 µM

Compound: CC(=O)NC(C)c1ccc(N=NN2CCCC2)cc1 (configuration not stated)
- EC50: > 200 µM
- IC50: 79.4 µM

Compound: Cc1ccc(S(=O)(=O)NN=C2C(C)(C)CC2(C)C)cc1
- EC50: > 200 µM
- IC50: > 200 µM

Compound: C=C1N(C=O)C(C)(C)N(O)C1(C)C
- EC50: > 200 µM
- IC50: > 200 µM

Compound: O=C1CCC(=O)N1C(c1ccccc1)(c1ccccc1)N1C(=O)CCC1=O
- EC50: > 200 µM
- IC50: 15.1 µM

Compound: COc1ccc(O[C@H](CO)C[C@@H]2COC(C)(C)O2)cc1
- EC50: > 200 µM
- IC50: > 200 µM

Compound: CC(=O)c1c(O)ccc(O)c1-n1nc(C)c([N+](=O)[O-])c1C
- EC50: > 224 µM
- IC50: > 224 µM

— PubChem BioAssay AID179 (DTP/NCI, 2004)
